Test results taken from patent publication US20140256663A1, “Amphotericin Analogous Compounds and Pharmaceutical Compositions Containing Them” (CENTRO DE INVESTIGACION Y DE ESTUDIOS AVANZADOS DEL …, priority 2010, published 2014).
pIC50: −log10 of the molar value.

Assays:
[1] = test system: human renal cells 293Q (ATCC CLR-1573); test: MTT cytotoxicity on human renal cells 293Q; conditions: for DT50 CitE50: human renal cells 293Q, 24 h
Protocol: For cytotoxicity studies human kidney cells (ATCC No. CRL-1573) were used. The cells were cultured with Minimum Essential Medium (MEM) (GIBCO BRL), supplemented with 10% fetal bovine serum (FBS) (GIBCO BRL), 2 mM 1-glutamine (GIBCO BRL), 1.5 gL Na2HCO3 (Sigma Chemical Co), 0.1 mM nonessential amino acids (Sigma Chemical Co), and 1 mM sodium pyruvate (In vitro, S.A.). The technique of bromide of 3(4,5-dimethylthiazol-2-yl)-2,5-diphenyl tetrazolium (MTT) (Sigma Chemical Co) was applied; a technique which is based on the conversion of dye to an insoluble precipitate called formazan. This test is used as an indicator of mitochondrial function in living cells that measures the metabolic capacity in cells and serves as an indicator of cytotoxicity. […] (Mosman […], Immunol Methods, 65: 55-63). The cytoxicity test consisted of planting 10,000 cells per well in 96-well plates (Corning Incorporated Costar) in MEM and incubate them (Nuaire us autoflow CO2 water-jacketed incubator) during 24 h at 37° C. and 5% CO2. […] After incubation, cells were treated and incubated anew for 24 h. After this time the medium was aspirated carefully and replaced with 200 μL of fresh medium, and 50 μL of MTT was added for a total volume of 250 μl. They were then incubated for 4 hours in the above conditions. After that time the medium with MTT was carefully removed and 200 μL of DMSO and 25 μL of Sorensen buffer (0.1 M glycine+0.1 M NaCl at pH 10.5) were added to each well. The plate was then mixed until the formazan crystals dissolved, and it was finally read in a plate reader (Microplate Limaning System Ultramark, Biorad) at a wavelength of 550 nm.
For the tests, we used human renal ephythelial cells (293Q) (ATCC Catalog No. CRL-1573). The cells were cultured with Minimum Essential Medium (MEM) (GIBCO BRL) supplemented with 10% fetal bovine serum (FBS) (GIBCO BRL), 2 mM L-glutamine (GIBCO BRL), 1.5 g/L Na2HCO3 (Sigma Chemical Co), 0.1 mM nonessential amino acids (Sigma Chemical Co), and 1 mM sodium pyruvate (In vitro, S.A.). For cytoxicity tests, we applied the technique of bromide 3(4,5-dimethylthiazol-2-yl)-2,5-diphenyl tetrazolium (MTT) (Sigma Chemical Co), which is based on the conversion of the dye to an insoluble precipitate called formazan. This test is used as an indicator of mitochondrial function in living cells which measures the metabolic capacity in cells and serves as an indicator of cytotoxicity. (Wang, H. Z., Chang, C. H., Lin, C. P., Tsai, M. C). Using MTT viability assay to test the cytotoxicity of antibiotics and steroid to cultured porcine corneal endothelial cells. J. Ocul. Pharmacol. Ther. 1996; 12: 35-43). For the essay 10,000 cells were seeded per well in 96-well plates (Corning Incorporated Costar) in the medium already indicated and incubated for 24 h at 37° C. and 5% CO2. […] After incubation, cells were treated and incubated again for 24 h. The medium was carefully aspirated and replaced with 200 μl fresh medium, adding 50 μl MTT solution for a total volume of 250 μl. They were then incubated for 4 hours in the above conditions. The medium was carefully removed with MTT and 200 μl DMSO and 25 μl Sorense buffer (0.1 M glycine+0.1 M NaCl at pH 10.5) was added to each well. Then the plate was mixed until the formazan crystals dissolved; it was finally read in a reader plate (Microplate Limaning System Ultramark, Biorad) at a wavelength of 550 nm.

[2] = Unit channel studies in chicken egg lecithin bilayers with cholesterol; conditions: for Opening probability, channel type I / Opening probability, channel type II / Opening probability, channel type III / Opening probability, channel type IV / Opening probability, channel type V / Opening probability, channel type VI: 200 μM compound, 30 mol % cholesterol, 27° C.
Protocol: The activity is determined by the presence of the different channels formed by polyenes in the lipid bilayer (Cotero, et al., supra; Venegas, et al., supra). […] These values were determined by the technique of unit channel delineated above.
Unit channel studies were performed according to procedures described earlier (Cotero, et al., supra, Venegas, et al., supra). Required liposomal suspensions were prepared using lecithin with cholesterol or ergosterol. These suspensions were placed in an ultrasonic bath for 15 minutes to produce unilamellar vesicles. Subsequently, the suspension was placed in a 100 μl eppendorf and a lipid bilayer was formed on the tip of a micro-electrode. The unit channels of amphotericin and of the invented compounds were incorporated to this bilayer. The unit channel current of the various compounds was recorded with an electrometer, and then these records were analyzed by determining the activity of the compounds and the characteristics of the channels formed.
The activity is determined by the presence of the various channels formed by polyenes in the lipid bilayer (Cotero, et al., supra, Venegas, et al., supra). […] This conductance is the effect of all the channels present and was determined by the unit channel technique earlier described.

[3] = test system: Candida albicans ATCC 752; test: Antifungal activity in vitro by flow cytometry, Candida albicans ATCC 752; type: cell-based; conditions: ATCC752, 24 h at 37° C., read-out: CF50 Candida albicans ATCC 752
Protocol: (§1) The antifungal activity of the polyene macrolide derivate of the present invention was determined by flow cytometry method earlier described (Pinto et al., J. Medical Microbiology, 2009; 58, 1454-1462; Pina-Vaz and Rodriguez, Methods Mol. Biol. 2010; 638:281-289). For the test two strains of Candida albicans (ATCC 10231 and 752) and Candida kruzei were used. A cellular suspension of 1×10^6 UFC/mL was used, which has sown in 96-well plates. […] As controls were used: untreated yeasts (control of living cells), yeasts exposed to UV radiation (arrest, inhibition of proliferation), and yeasts exposed at temperature of 100° C. (dead yeasts). Cells were collected by centrifugation at 10,000×g for 10 min, they were washed once in phosphate buffer. […] of propidium iodide 0.1 mg/mL were added to the cell suspension. It was incubated during 30 minutes at room temperature and protected from light. Finally, the samples were analyzed by flow cytometry (Becton-Dickinson Facsc Calibur, laser argon 480 nm). The intrinsic parameters and fluorescence in the FL2 channel (yellow/orange fluorescence) for FUN and channel FL3 (red fluorescence, filter 630 nm) for propidium iodide were acquired and registered on a logarithmic scale for a minimum of 7500 events per sample. For data analysis, the quadrants were adjusted in a plot of data lines of fluorescence intensity of samples. […] These quadrants were used to quantify the percentile of cells showing altered fluorescence compared to drug-free controls.

[4] = test system: Candida albicans ATCC 10231; test: Antifungal activity in vitro by flow cytometry, Candida albicans ATCC 10231; type: cell-based; conditions: ATCC10231, 24 h at 37° C., read-out: CF50 Candida albicans ATCC 10231
Protocol: as §1

Candida kruzei = test: Antifungal activity in vitro by flow cytometry, Candida kruzei; type: cell-based; conditions: 24 h at 37° C., read-out: CF50 Candida kruzei
Protocol: as §1

human erythrocytes = test: Hemolytic assay on human erythrocytes; type: cell-based; conditions: 1 hour
Protocol: The hemotoxicity of the polyene macrolide derivative of the present invention was determined by measuring the toxicity to human erythrocytes (values HE50) using a method established by Cybulska, et al. (Cybulska, B., Borowski, E. and Gary-Bobo, M. Relationship between ionophoric and hemolytic activities of perimycin A and vacidin A, two polyene macrolide antifungal antibiotics. Biochem Pharmacol. 1989; 38(11): 1755-1762). For determining the haematoxicity 2 mL blood were obtained and placed in a tube with EDTA. The number of erythrocytes was counted in a Neubauer chamber, and 1×10^7 cells/mL were placed in test tubes. The erythrocytes were resuspended in 450 μL of KCl 150 mM+Tris 3 mM buffer. The erythrocytes were treated with concentrations of 0.01, 0.1, 1, 10 y 100 μM and incubated in a water bath for 1 hour. They were then centrifuged at 1500 rpm for 15 seconds; 150 μL were taken from the supernatant and placed in 96-well plates; the optical density of each group was measured using a plate reader at a wavelength of 550 nm. We included one tube with the drug solvent (DMSO 1%) as internal control. We also included one tube only with erythrocytes and 500 μl of buffer KCl 150 mM+Tris 3 mM, which we consider as a negative control group and a tube with 500 μl of red cells and 35 mM NaCl (positive control).

[5] = test system: Saccharomyces cerevisae FY833(SC) cells; test: Viability of Saccharomyces cerevisae FY833 (SC) cells at various concentrations; type: cell-based; conditions: FIG. 1, various concentrations
Protocol: All derivatives were tested for antibiotic activity in yeast cultures of S. cerevisiae.

Row | Structure (SMILES) | DT50 CitE50 [1] | Opening probability, channel type I [2] | Opening probability, channel type II [2] | Opening probability, channel type III [2] | Opening probability, channel type IV [2] | Opening probability, channel type V [2] | Opening probability, channel type VI [2] | pIC50 [3] | pIC50 [4] | pIC50 (Candida kruzei) | HE50 (Hemolysis 50) (human erythrocytes) | inhibitory capacity / potency on SC cells compared to AmB [5] | collateral cytotoxicity on human renal cells 293Q compared to AmB ([1]; FIG. 2, FIG. 8) | activity of transmembranal channels in the cholesterol membrane ([2]; in words, compared to AmB)
1 | CC1OC(O[C@H]2/C=C/C=C/C=C/C=C/C=C/C=C/C=C/C(C)[C@@H](O)C(C)C(C)OC(=O)C[C@H](O)C[C@H](O)CC[C@@H](O)[C@H](O)C[C@H](O)C[C@]3(O)CC(O)[C@@H](C(=O)NC4CCCCC4)C(C2)O3)C(O)C(N)C1O (stereo partly shown) [A-2, N-cycloheximide of AmB] | 120 µM | 5% | <1% | <1% | <1% | <1% | <1% | < 4.00 | < 4.30 | < 4.00 | 45 µM | – | – | –
2 | CC1/C=C/C=C/C=C/C=C/C=C/C=C/C=C/[C@H](OC2O[C@H](O)[C@@H](O)[C@H](N)[C@@H]2O)C[C@@H]2O[C@](O)(C[C@@H](O)C[C@@H](O)[C@H](O)CC[C@@H](O)C[C@@H](O)CC(=O)O[C@@H](C)[C@H](C)[C@@H]1O)C[C@H](O)[C@H]2C(=O)NCCc1c[nH]cn1 (stereo partly shown) [A-8, N-histaminamide of AmB] | – | – | – | – | – | – | – | < 4.00 | < 4.30 | < 4.00 | – | – | – | –
3 | COC(=O)C(Cc1c[nH]c2ccccc12)NC(=O)[C@@H]1C(O)C[C@@]2(O)C[C@@H](O)C[C@@H](O)[C@H](O)CC[C@@H](O)C[C@@H](O)CC(=O)OC(C)C(C)[C@H](O)C(C)/C=C/C=C/C=C/C=C/C=C/C=C/C=C/[C@H](OC3OC(C)C(O)C(N)C3O)CC1O2 (stereo partly shown) [A-6, N-(L)-tryptophanamide of AmB] | 120 µM | 23% | 2% | <1% | <1% | <1% | N.O. | < 4.00 | < 4.30 | < 4.00 | 58 µM | – | – | –
4 | CC1OC(O[C@H]2/C=C/C=C/C=C/C=C/C=C/C=C/C=C/C(C)[C@@H](O)C(C)C(C)OC(=O)C[C@H](O)C[C@H](O)CC[C@@H](O)[C@H](O)C[C@H](O)C[C@]3(O)CC(O)[C@@H](C(=O)N(C(C)C)C(C)C)C(C2)O3)C(O)C(N)C1O (stereo partly shown) [A-3, N-diisopropylamide of AmB] | 180 µM | <1% | N.O. | N.O. | N.O. | N.O. | N.O. | < 4.00 | < 4.30 | < 4.00 | 53 µM | low potency in fungal cells | low cytoxicity | more reduced presence of channels in membranes with cholesterol
5 | CC(NC(=O)[C@@H]1C(O)C[C@@]2(O)C[C@@H](O)C[C@@H](O)[C@H](O)CC[C@@H](O)C[C@@H](O)CC(=O)OC(C)C(C)[C@H](O)C(C)/C=C/C=C/C=C/C=C/C=C/C=C/C=C/[C@H](OC3OC(C)C(O)C(N)C3O)CC1O2)c1ccccc1 (stereo partly drawn) [A-4, N—(S)-α-phenylethylamide of AmB] | 80 µM | 7% | 3% | 1% | <1% | <1% | <1% | < 4.00 | < 4.30 | < 4.00 | 46 µM | – | – | –
6 | CC1OC(O[C@H]2/C=C/C=C/C=C/C=C/C=C/C=C/C=C/C(C)[C@@H](O)C(C)C(C)OC(=O)C[C@H](O)C[C@H](O)CC[C@@H](O)[C@H](O)C[C@H](O)C[C@]3(O)CC(O)[C@@H](C(=O)N[C@H](C)c4ccccc4)C(C2)O3)C(O)C(N)C1O (stereo partly drawn) [A-5, N—(R)-α-phenylethylamide of AmB] | 100 µM | 10% | 2% | <1% | <1% | <1% | <1% | < 4.00 | < 4.30 | < 4.00 | 42 µM | – | – | –
